The source of these data is patent US12398180B2, “Treatment of non-alcoholic fatty liver disease” (NURITAS LIMITED, priority 2019, dated 2025).

The term half-life denotes the time in which the quantity being followed falls by half. One may read the fraction unbound as free concentration divided by total concentration.

Read-outs that look alike come from different tables or passages of the source. Square brackets hold non-standard residues; d marks the D form. Peptide text beside a SMILES is read from it.

Data set [1] relates to human skeletal muscle cells. Description: Glucose uptake in skeletal muscle cells. It counts as cell-based. To be noted: compared with control (FIG. 5).
For data set [2], the system named is primary human hepatic stellate cells. As to the kind of experiment: Anti-fibrotic effect in TGF-β stimulated primary hepatic stellate cells (ACTA2 staining). To be noted: 10 μM. The format is cell-based. Here is the method:
The procedure was performed as described above for the CY5 labelled peptide imaging in HSkMCs with a few minor modifications. Primary hepatic stellate cells were investigated as they are considered to be the most relevant profibrogenic cells operating in acute and chronic liver diseases. The stellate cells were seeded directly onto the glass coverslips at a density of 5,000 cells/mL. After starvation, the cells were treated with pep_1E99R5 (5 ng/mL) or Elafibranor (10 μM) for 6 hours. The cells were washed and subsequently treated with 5 ng/ml […] (Bio Techne, Minneapolis, MN, United States) for 24 hours to induce fibrosis. The cells were fixed and stained with ACTA2 antibody (Assay Genie, Dublin, Ireland), a marker of fibroblast activation.
The confocal images were analysed with custom Python scripts using the scikit-image library version 0.15. The cells and nuclei were segmented using a simple threshold computed using the mean value of the image. Using the Nuclei as a seed we separated the cells in the cell mask using watershed segmentation. Cell size was then quantified in pixels. [Stéfan van der Walt, Johannes L. Schönberger, Juan Nunez-Iglesias, Frangois Boulogne, Joshua D. Warner, Neil Yager, Emmanuelle Gouillart, Tony Yu and the scikit-image contributors. scikit-image: Image processing in Python. PeerJ 2:e453 (2014)

The next data set in a line: PK profile (half-life). To be noted: in vivo.
For data set [3] the following is noted: in humans; cited from earlier work.
The next data set deals with lipoproteins. To be noted: binding to lipoproteins; cited from earlier work.
A further data set concerns Human primary cells. As to the kind of experiment: Cytotoxicity in primary human cell-based systems (SRB / alamarBlue). To be noted: at the concentration tested. Here is the method: Systems are derived from either single cell types or co-culture systems. Adherent cell types are cultured in 96 or 384-well plates until confluence, followed by the addition of PBMC (SAg and LPS systems). The BT system consists of CD19+ B cells co-cultured with PBMC and stimulated with a BCR activator and low levels of TCR stimulation. Test agents prepared in either DMSO (small molecules; final concentration s 0.1%) or PBS (biologics) are added at the indicated concentrations 1-hr before stimulation, and remain in culture for 24 h or as otherwise indicated (48 h, MyoF system; 72 h, BT system (soluble readouts); 168 h, BT system (secreted IgG)). […] Soluble factors from supernatants are quantified using either HTRF® detection, bead-based multiplex immunoassay or capture ELISA. Overt adverse effects of test agents on cell proliferation and viability (cytotoxicity) are detected by sulforhodamine B (SRB) staining, for adherent cells, and alamarBlue® reduction for cells in suspension. For proliferation assays, individual cell types are cultured at subconfluence and measured at time points optimized for each system (48 h: 3C and CASM3C systems; 72 h: BT and HDF3CGF systems; 96 h: SAg system). […]
Background: Alamar Blue is a resazurin reagent that responds to reducing activity.

Another data set concerns C57BL/6 mice. Description: Acetaminophen (APAP)-induced acute liver injury mouse model, ALT/AST. It counts as in vivo. To be noted: inferred from ALT/AST time course.

Experimental for C57BL/6 mice: Animals for Acetaminophen (APAP)-induced Acute Liver Injury Mouse Model: All animal procedures were performed by Melior Discovery (Exton, PA, USA) in accordance with Institutional Animal Care and Use (IACUC) guidelines in an AAALAC-accredited facility. […] Studies were performed with 8-week-old male C57BL/6 mice obtained from the Charles River Laboratory and were randomly assigned to the treatment groups based on body mass. Mice were acclimated for 7 days and housed 4 per cage on a 12-hour light/dark cycle with ad libitum access to standard rodent chow and water.

As to “1(clac)wKE(Me)EC1GK(Me)PLVk-OH (Ac-[dW]KEXCGKXLV[dK]-OH; thioether (positions not given here); not fully specified (residues 4, 8, bridges); printed as 1(clac)wKE(Me)EC1GK(Me)PLVk-OH) [SEQUENCE ID NO: 3]”, the “glucose uptake in human skeletal muscle cells in-vitro” value in data set [1] is “significantly increases”. Also, in the data set “Stability in-vivo”, the stability in-vivo entry is recorded as “enhanced stability”.

For `CSc1ccc(C(=O)/C=C/c2cc(C)c(OC(C)(C)C(=O)O)c(C)c2)cc1` [Elafibranor], the “anti-fibrotic effect in stimulated stellate cells” value in data set [2] was “anti-fibrotic effects”.

On to `CC(C)C[C@H](NC(=O)[C@@H]1CCCN1C(=O)[C@H](CCCCN)NC(=O)CNC(=O)[C@@H](C)NC(=O)[C@H](CCC(=O)O)NC(=O)[C@H](CC(=O)O)NC(=O)[C@@H](CCCCN)NC(=O)[C@H](N)Cc1c[nH]c2ccccc12)C(=O)N[C@@H](C(=O)N[C@H](CCCCN)C(=O)O)C(C)C` [SEQ ID 2, {d}W{d}KDE{d}AGKPL{d}V{d}K] (H-[dW][dK]DE[dA]GKPL[dV][dK]-OH; N-terminus and C-terminus assumed), for which the half-life in the data set “PK profile (half-life)” worked out at 1.55 h.

Regarding `C[C@@H](O)[C@@H]1NC(=O)[C@H](CCCCN)NC(=O)[C@@H](Cc2c[nH]c3ccccc23)NC(=O)[C@H](Cc2ccccc2)NC(=O)[C@@H](NC(=O)[C@H](N)Cc2ccccc2)CSSC[C@@H](C(=O)N[C@H](CO)[C@@H](C)O)NC1=O` [octreotide], in data set [3], the half-life result is “about 100 min”. Moreover, the fraction unbound with lipoproteins is recorded as 0.65.

As to `CC(C)C[C@H](NC(=O)[C@@H]1CCCN1C(=O)[C@H](CCCCN)NC(=O)CNC(=O)[C@H](C)NC(=O)[C@H](CCC(=O)O)NC(=O)[C@H](CC(=O)O)NC(=O)[C@H](CCCCN)NC(=O)[C@@H](N)Cc1c[nH]c2ccccc12)C(=O)N[C@H](C(=O)N[C@@H](CCCCN)C(=O)O)C(C)C` [pep_260] (H-WKDEAGKPLVK-OH; N-terminus and C-terminus assumed), the cytotoxicity result in the data set on Human primary cells is given as “not cytotoxic”. For the same molecule, the “duration of potent functionality in mice” value in the data set with C57BL/6 mice stood at 2 h.

Take `NC(=O)CC[C@@H]1NC(=O)[C@H](Cc2ccccc2)NC(=O)[C@H](Cc2ccc(O)cc2)NC(=O)[C@@H](N)CSSC[C@@H](C(=O)N2CCC[C@H]2C(=O)N[C@@H](CCCN=C(N)N)C(=O)NCC(N)=O)NC(=O)[C@H](CC(N)=O)NC1=O` [vasopressin]: the half-life in data set [3] was 0.167 to 0.583 h.
